{"source": "patent US10138271B2", "about": "“Native and agonist CTL epitopes of the MUC1 tumor antigen” (The United States of America, as represented by the …, priority 2012, dated 2018)", "key": {"[1]": {"system": "MUC1-C-specific T-cell lines", "experiment": "IFN-γ release by MUC1-C-specific T-cell lines stimulated with peptide-pulsed autologous B cells (ELISA)", "type": "cell-based, human", "conditions": "for IFN-γ: T-cell line generated with and stimulated by the same peptide, APC:T 2:1, 24 hour supernatant; for IFN-γ production by agonist peptide-specific T-cell line, agonist versus native peptide: at each peptide concentration, FIG. 1A-C", "protocol": "Supernatants of T cells stimulated for 24 h with peptide-pulsed autologous DCs or autologous EBV-transformed B cells in IL-2-free medium at various peptide concentrations were screened for secretion of IFN-γ by ELISA kit (BioSource International, Camarillo, Calif.). Results were expressed in pg/mL.\nTo evaluate the specificity of these T-cell lines, an IFN-γ release assay was performed using irradiated autologous B cells pulsed with the corresponding peptide. T cells were stimulated with irradiated autologous B cells pulsed with corresponding peptide at an APC:T cell ratio of 2:1. T cells were used at a concentration of 5×10^5/mL. 24 hour culture supernatants were collected and screened for secretion of IFN-γ. T-1-P1172(1Y), T-1-P1177(10V), and T-2-P1240(1Y) cell lines produced higher levels of IFN-γ compared to T-cell lines generated using corresponding native peptides (Table 2).\nStudies were then conducted to compare the ability of the native peptides and the agonist peptides, at various concentrations, to activate the agonist peptide-specific T cells.\nAn additional T-cell line was then established from the PBMCs of another patient (patient 3) with colon cancer from the same clinical trial described above, using P1177 and P1177(10V), designated T-3-P1177 and T-3-P1177(10V), respectively."}, "T-VNTR-5 T cell line": {"system": "T-VNTR-5 T cell line", "experiment": "IFN-γ production by VNTR-5-specific T cell line stimulated with agonist or native peptide", "type": "cell-based, human", "conditions": "APC:T 3:1, 24 hours", "protocol": "(§1) T-VNTR-3 (VNTR-3 agonist peptide-specific T cell line) and T-VNTR-5 (VNTR-5 agonist peptide-specific T cell line) were separately cultured at a concentration of 1×10^5 cells/mL. The ratio of APC:T cells was 3:1. The agonist or native peptides were used at various concentrations (see Tables 14 and 15). The supernatents were collected after 24 hours, and the amount of IFN-γ was determined. The VNTR-3- and VNTR-5-specific T cell lines stimulated with agonist peptides produced higher levels of IFN-γ as compared to stimulation with native peptides (see Tables 14 and 15)."}, "HLA-A2 molecules [2]": {"molecular_target": "T1, HLA-A2 molecules (Homo sapiens, UniProt P04439, D140Y/D185E/D98H/E176V/E277Q/G131W/G231S/I119V/I121R/I166T/I218V/L300P/L318F/N151K/N90K/P208A/P217A/Q86G/Q94H/R138H/R169H/T345S)", "T1 construct": "endogenous in cells; host or cells: T2 / T2A2 cells (174CEM-T2, transport deletion mutant)", "experiment": "Peptide binding to HLA-A2: upregulation of HLA-A2 expression on T2/T2A2 cells by flow cytometry", "conditions": "for T2 Binding (mean fluorescence intensity): peptide 12.5 μg/mL; for T2A2 Binding (mean fluorescence intensity): peptide 25 μg/mL", "protocol": "Single-color flow cytometric analysis has been previously described in Guadagni et al., Cancer Res., 50: 6248-6255 (1990). Briefly, cells were washed 3 times with cold Ca2^+- and Mg2^+-free Dulbecco's phosphate-buffered saline (PBS), and then stained for 1 h at 4° C. using FITC-conjugated monoclonal antibodies anti-HLA-A2,28 (One Lambda, Inc., Canoga Park, Calif.), anti-CD3, anti-CD4, and anti-CD8 (BD Biosciences, San Jose, Calif.). Mouse IgG2a, k FITC (BD Biosciences) was used as isotype control. The cells were then washed 3 times with cold Ca2^+- and Mg2^+-free PBS, resuspended in the same buffer, and immediately analyzed using a FACScan (Becton Dickinson, Franklin Lakes, N.J.) and CellQuest software (BD Biosciences). Results were generated from data gathered from 10,000 live cells and expressed as percent-positive cells and mean fluorescence intensity (MFI). The MFI value was collected in log scale and used to express levels of fluorescence determined by measuring the average for all cells in the fluorescence dot plot."}, "T-VNTR-3 T cell line": {"system": "T-VNTR-3 T cell line", "experiment": "IFN-γ production by VNTR-3-specific T cell line stimulated with agonist or native peptide", "type": "cell-based, human", "conditions": "APC:T 3:1, 24 hours", "protocol": "as §1"}, "HLA-A2 molecules [3]": {"molecular_target": "T1, HLA-A2 molecules", "experiment": "Stability of peptide/HLA-A2 complexes (percentage of remaining complexes over time)", "type": "binding", "conditions": "time points 0, 2, 4, 6, 8, 10 h", "protocol": "The stability of the peptide/HLA-A2 complexes of the analogs and native peptides were analyzed by determining the percentage of the remaining complexes on HLA-A2 molecules at different time points (0, 2, 4, 6, 8, and 10 h).\nThe stability of the peptide/HLA-A2 complexes of the analogs and native peptides was analyzed by determining the percentage of the remaining complexes on HLA-A2 molecules at different time points (0, 2, 4, 6, 8, and 10 h)."}}}
{"sequence": "ALAIVYLIAL [Peptide P1172]", "values": [{"measurement": "IFN-γ", "setting": "[1]", "result": 158.3, "unit": "pg/mL"}]}
{"sequence": "APDTRPAPG [VNTR-4]", "values": [{"measurement": "IFN-γ", "setting": "T-VNTR-5 T cell line; peptide 1.56 μg/mL", "result": 19.8, "unit": "pg/mL"}, {"measurement": "IFN-γ", "setting": "T-VNTR-5 T cell line; peptide 3.13 μg/mL", "result": 53.2, "unit": "pg/mL"}, {"measurement": "IFN-γ", "setting": "T-VNTR-5 T cell line; peptide 6.25 μg/mL", "result": 63.1, "unit": "pg/mL"}, {"measurement": "IFN-γ", "setting": "T-VNTR-5 T cell line; peptide 12.5 μg/mL", "result": 109.3, "unit": "pg/mL"}, {"measurement": "IFN-γ", "setting": "T-VNTR-5 T cell line; peptide 25 μg/mL", "result": 117.9, "unit": "pg/mL"}]}
{"sequence": "GLFDEYLEMV [NGEP (P703)]", "values": [{"measurement": "T2 Binding (mean fluorescence intensity)", "setting": "HLA-A2 molecules [2]", "result": 481.93, "unit": "MFI"}, {"measurement": "T2A2 Binding (mean fluorescence intensity)", "setting": "HLA-A2 molecules [2]", "result": 485.3, "unit": "MFI"}]}
{"sequence": "HLFGYSWYK [CAP-7]", "values": [{"measurement": "T2 Binding (mean fluorescence intensity)", "setting": "HLA-A2 molecules [2]", "result": 109.1, "unit": "MFI"}, {"measurement": "T2A2 Binding (mean fluorescence intensity)", "setting": "HLA-A2 molecules [2]", "result": 83.8, "unit": "MFI"}]}
{"sequence": "SLSYTNPAV [Peptide P1240]", "values": [{"measurement": "IFN-γ", "setting": "[1]", "result": 437.3, "unit": "pg/mL"}]}
{"sequence": "STAPPAHGV [VNTR-2]", "values": [{"measurement": "IFN-γ", "setting": "T-VNTR-3 T cell line; peptide 1.56 μg/mL", "result": 29.0, "unit": "pg/mL"}, {"measurement": "IFN-γ", "setting": "T-VNTR-3 T cell line; peptide 3.13 μg/mL", "result": 75.8, "unit": "pg/mL"}, {"measurement": "IFN-γ", "setting": "T-VNTR-3 T cell line; peptide 6.25 μg/mL", "result": 127.0, "unit": "pg/mL"}, {"measurement": "IFN-γ", "setting": "T-VNTR-3 T cell line; peptide 12.5 μg/mL", "result": 203.0, "unit": "pg/mL"}, {"measurement": "IFN-γ", "setting": "T-VNTR-3 T cell line; peptide 25 μg/mL", "result": 261.0, "unit": "pg/mL"}]}
{"sequence": "YLAIVYLIAL [P1172(1Y)]", "values": [{"measurement": "Stability of peptide/HLA-A2 complexes, analog versus native peptide", "setting": "HLA-A2 molecules [3]", "result": "No differences"}, {"measurement": "IFN-γ", "setting": "[1]", "result": 605.0, "unit": "pg/mL"}, {"measurement": "IFN-γ production by agonist peptide-specific T-cell line, agonist versus native peptide", "setting": "[1]", "result": "greatest level of IFN-γ production"}]}
{"sequence": "YLAPPAHGV [VNTR-3]", "values": [{"measurement": "Stability of peptide/HLA-A2 complexes, analog versus native peptide", "setting": "HLA-A2 molecules [3]", "result": "greater avidity for class I molecules than the native peptides"}, {"measurement": "IFN-γ", "setting": "T-VNTR-3 T cell line; peptide 1.56 μg/mL", "result": 304.9, "unit": "pg/mL"}, {"measurement": "IFN-γ", "setting": "T-VNTR-3 T cell line; peptide 3.13 μg/mL", "result": 457.6, "unit": "pg/mL"}, {"measurement": "IFN-γ", "setting": "T-VNTR-3 T cell line; peptide 6.25 μg/mL", "result": 685.3, "unit": "pg/mL"}, {"measurement": "IFN-γ", "setting": "T-VNTR-3 T cell line; peptide 12.5 μg/mL", "result": 766.1, "unit": "pg/mL"}, {"measurement": "IFN-γ", "setting": "T-VNTR-3 T cell line; peptide 25 μg/mL", "result": 771.5, "unit": "pg/mL"}]}
{"sequence": "YLDTRPAPV [VNTR-5]", "values": [{"measurement": "Stability of peptide/HLA-A2 complexes, analog versus native peptide", "setting": "HLA-A2 molecules [3]", "result": "greater avidity for class I molecules than the native peptides"}, {"measurement": "IFN-γ", "setting": "T-VNTR-5 T cell line; peptide 1.56 μg/mL", "result": 205.1, "unit": "pg/mL"}, {"measurement": "IFN-γ", "setting": "T-VNTR-5 T cell line; peptide 3.13 μg/mL", "result": 322.0, "unit": "pg/mL"}, {"measurement": "IFN-γ", "setting": "T-VNTR-5 T cell line; peptide 6.25 μg/mL", "result": 452.9, "unit": "pg/mL"}, {"measurement": "IFN-γ", "setting": "T-VNTR-5 T cell line; peptide 12.5 μg/mL", "result": 496.2, "unit": "pg/mL"}, {"measurement": "IFN-γ", "setting": "T-VNTR-5 T cell line; peptide 25 μg/mL", "result": 543.7, "unit": "pg/mL"}]}
{"sequence": "YLIALAVCQC [Peptide P1177]", "values": [{"measurement": "IFN-γ", "setting": "[1]", "result": 666.4, "unit": "pg/mL"}]}
{"sequence": "YLIALAVCQV [P1177(10V)]", "values": [{"measurement": "Stability of peptide/HLA-A2 complexes, analog versus native peptide", "setting": "HLA-A2 molecules [3]", "result": "greater avidity for class I molecules than the native peptide P1177 at each time point"}, {"measurement": "IFN-γ", "setting": "[1]", "result": ">1,000 pg/mL"}, {"measurement": "IFN-γ production by agonist peptide-specific T-cell line, agonist versus native peptide", "setting": "[1]", "result": "greatest level of IFN-γ production"}]}
{"sequence": "YLSYTNPAV [P1240(1Y)]", "values": [{"measurement": "Stability of peptide/HLA-A2 complexes, analog versus native peptide", "setting": "HLA-A2 molecules [3]", "result": "No differences"}, {"measurement": "IFN-γ", "setting": "[1]", "result": ">1,000 pg/mL"}, {"measurement": "IFN-γ production by agonist peptide-specific T-cell line, agonist versus native peptide", "setting": "[1]", "result": "greatest level of IFN-γ production"}]}
